The CheMixHub viscosity set

Assay: xn = mol fraction of the nth substance listed

CCOc1ccccc1 + CN(C)C=O
viscosity [mPa·s], 101.33 kPa
Details	x1 = 0.031	x1 = 0.091	x1 = 0.153	x1 = 0.223	x1 = 0.304	x1 = 0.463	x1 = 0.556	x1 = 0.642	x1 = 0.8
298 K	0.815	0.839	0.862	0.889	0.919	0.978	1.012	1.042	1.097
303 K	0.769	0.788	0.808	0.831	0.857	0.907	0.936	0.963	1.01
308 K	0.73	0.747	0.763	0.783	0.804	0.847	0.871	0.893	0.933

OCC(O)CO + CN(C)C=O
viscosity [mPa·s], 101 kPa
Details	x1 = 0.105	x1 = 0.209	x1 = 0.312	x1 = 0.414	x1 = 0.514	x1 = 0.613	x1 = 0.712	x1 = 0.809	x1 = 0.905
303.15 K	1.5	2.41	4.22	7.36	14.2	19.9	64.6	127.5	258.7
318.15 K	1.24	1.84	2.91	4.77	8.35	–	27.3	50.5	91.1

CCCCCCCCn1cc[n+](C)c1.[Cl-] + CO
298.15 K, 101 kPa
Details	viscosity [mPa·s]
x2 = 0.0565	10350
x2 = 0.1686	3456
x2 = 0.3525	534

CCOC(C)=O + CO
viscosity [mPa·s]
Details	293.15 K	298.15 K	303.15 K	308.15 K	313.15 K	318.15 K	323.15 K
100 kPa, x2 = 0.4071	0.4216	0.4015	0.384	0.365	0.3527	0.3431	0.3216
100 kPa, x2 = 0.6468	0.4612	0.4319	0.4112	0.3868	0.3681	0.3501	0.3336
100 kPa, x2 = 0.8048	0.499	0.4697	0.4463	0.4182	0.3988	0.3758	0.3564
100 kPa, x2 = 0.9168	0.5454	0.5164	0.4893	0.4559	0.4327	0.4083	0.3858
101 kPa, x1 = 0.065	0.549	–	0.477	–	0.424	–	0.378
101 kPa, x1 = 0.115	0.528	–	0.462	–	0.413	–	0.368
101 kPa, x1 = 0.306	0.475	–	0.422	–	0.377	–	0.342
101 kPa, x1 = 0.321	0.471	–	0.418	–	0.376	–	0.341
101 kPa, x1 = 0.445	–	–	–	–	0.364	–	0.333
101 kPa, x1 = 0.598	0.444	–	0.397	–	0.36	–	0.328
101 kPa, x1 = 0.797	–	–	–	–	0.362	–	0.332
